Results published in patent US20240262815A1, “HETEROARYL DERIVATIVE, METHOD FOR PREPARING SAME, AND PHARMACEUTICAL COMPOSITION COMPRISING SAME AS ACTIVE INGREDIENT” (VORONOI INC., priority 2021, published 2024).

Each compound was assayed on SK-BR-3 cancer cells (assay: Inhibitory activity against proliferation of SK-BR-3 cancer cells (CellTiter-Glo)). Settings: Homo sapiens, SK-BR-3, 120 h, ErbB2-overexpressing SK-BR-3 cells, 120 hours after treatment.
Format: cell-based
Procedure: To evaluate the inhibitory activity of a compound according to the present invention against the proliferation of ErbB2-overexpressing cancer cells, the following experiment were performed.
10% FBS-added McCOY'S 5A was used for SK-BR-3 cancer cells. 20% FBS-added RPMI-1640 was used for BT-474 cancer cells. Transduced Ba/F3 cells were cultured in a RPMI-1640 medium to which 1 μg/ml puromycin (Invitrogen) was added.
48 hours before compound treatment, each type of the SK-BR-3 and BT-474 cells were seeded at 5,000 cells/well in a white clear bottom 96 well plate (Corning). The compound was diluted in dimethyl sulfoxide (SK-BR-3: 3-fold dilution, a total of 12 concentrations, BT-474: […], a total of 12 concentrations) and injected at 1 μl to have the final concentration of 0.2 nM to 5 μM. As for measurement of live cells, 120 hours after treatment with the compound, a CellTiter-Glo luminescent cell-viability reagent (Promega) was used to store the cells at room temperature for 10 minutes, followed by measurement of luminescence using a reader (SynergyNeo, Biotek). Each test was repeated three times.
The result values were calculated as a cell growth rate (%) compared to the control group. A graph was plotted using the GraphPad Prism version 8.3.0 program, and GI50 values were calculated.

| GI50 [nM] | SMILES |
| --- | --- |
| < 50 | C=CC(=O)Nc1cc(Nc2cc(N3OCCC3c3cccc(-c4nccs4)c3)ncn2)c(OC)cc1N(C)CCN(C)C (stereo not drawn) [Example 238, N-(2-((2-(dimeth-ylamino)ethyl)-(methyl)amino)-4-methoxy-5-((6-(3-(3-(thiazol-2-yl)-phenyl)isoxazol-idin-2-yl)pyrim-idin-4-yl)amino)-phenyl)acrylamide] |
| < 50 | C=CC(=O)Nc1cc(Nc2cc(N3OCC[C@@H]3c3cc(F)cc(-c4cccc(N(C)C)c4)c3)ncn2)c(OC)cc1N(C)CCN(C)C [Example 239] |
| < 50 | C=CC(=O)Nc1cc(Nc2cc(N3OCC[C@@H]3c3cc(F)cc(-c4ncnn4C)c3)ncn2)c(OC)cc1N(C)CCN(C)C [Example 240, (R)-N-(2-((2-(dimethylamino)-ethyl)(methyl)-amino)-5-((6-(3-(3-fluoro-5-(1-methyl-1H-1,2,4-triazol-5-yl)phen-yl)-isoxazolidin-2-yl)pyrimidin-4-yl)-amino)-4-methoxy-phen-yl)acrylamide] |
| 500 to 5000 | C=CC(=O)Nc1cc(Nc2cc(N3OCC[C@H]3c3cccc(-c4cccc(F)c4)c3)ncn2)c(OC)cc1N1CCN(C)CC1 [Example 241, (S)-N-(5-((6-(3-(3′-fluoro-[1,1′-biphenyl]-3-yl)-isoxazolidin-2-yl)-pyrimidin-4-yl)-amino)-4-methoxy-2-(4-methylpiper-azin-1-yl)phenyl)-acrylamide] |
| < 50 | C=CC(=O)Nc1cc(Nc2cc(N3OCC[C@@H]3c3cc(F)cc(-c4cccs4)c3)ncn2)c(OC)cc1N(C)CCN(C)C [Example 243, (R)-N-(2-((2-(dimethylamino)-ethyl)(methyl)-amino)-5-((6-(3-(3-fluoro-5-(thio-phen-2-yl)phenyl)-isoxazolidin-2-yl)-pyrimidin-4-yl)-amino)-4-methoxy-phenyl)acrylamide] |
| < 50 | C=CC(=O)Nc1cc(Nc2cc(N3OCC[C@@H]3c3ccc(F)c(OCc4cccc(F)c4)c3)ncn2)c(OC)cc1N1CCN(C)CC1 [Example 244, (R)-N-(5-((6-(3-(4-fluoro-3-((3-fluorobenzyl)oxy)-phenyl)isoxazol-idin-2-yl)pyrim-idin-4-yl)amino)-4-methoxy-2-(4-methylpiperazin-1-yl)phenyl)-acrylamide] |
| < 50 | C=CC(=O)Nc1cc(Nc2cc(N3OCC[C@@H]3c3cccc(C(=O)NC(C)C)c3)ncn2)c(OC)cc1N1CCN(C)CC1 [Example 246, (R)-3-(2-(6-((5-acrylamido-2-methoxy-4-(4-methylpiperazin-1-yl)phenyl)-amino)pyrimidin-4-yl)isoxazolidin-3-yl)-N-isopropyl-benzamide] |
| < 50 | C=CC(=O)Nc1cc(Nc2cc(N3OCC[C@@H]3c3cccc(C(=O)NC(C)C)c3)ncn2)c(OC)cc1N(C)CCN(C)C [Example 247, (R)-3-(2-(6-((5-acrylamido-4-((2-(dimethylamino)-ethyl)(methyl)-amino)-2-methoxy-phenyl)amino)pyr-imidin-4-yl)isox-azolidin-3-yl)-N-isopropylbenzamide] |
| 50 to 500 | C=CC(=O)Nc1cc(Nc2cc(N3OCCC3c3cccc(-c4cc(F)cc(F)c4)c3)ncn2)c(OC)cc1N1CCC(N2CCN(C3CC3)CC2)CC1 (stereo not drawn) [Example 249, N-(2-(4-(4-cyclo-propylpiperazin-1-yl)piperidin-1-yl)-5-((6-(3-(3′,5′-difluoro-[1,1′-biphenyl]-3-yl)-isoxazolidin-2-yl)-pyrimidin-4-yl)-amino)-4-methoxy-phenyl)acrylamide] |
| < 50 | C=CC(=O)Nc1cc(Nc2cc(N3OCCC3c3cccc(-c4cccc(C#N)c4)c3)ncn2)c(OC)cc1N1CCC(N2CCN(C3CC3)CC2)CC1 (stereo not drawn) [Example 250, N-(5-((6-(3-(3′-cyano-[1,1′-biphen-yl]-3-yl)isoxazol-idin-2-yl)pyrim-idin-4-yl)amino)-2-(4-(4-cycloprop-ylpiperazin-1-yl)-piperidin-1-yl)-4-methoxyphenyl)-acrylamide] |

More lines, now with the values behind:

| SMILES | GI50 [nM] |
| --- | --- |
| C=CC(=O)Nc1cc(Nc2cc(N3OCCC3c3cccc(-c4ccc(C)s4)c3)ncn2)c(OC)cc1N1CCN(C)CC1 (stereo not drawn) [Example 214, N-(4-methoxy-2-(4-methylpiper-azin-1-yl)-5-((6-(3-(3-(5-methyl-thiophen-2-yl)-phenyl)isoxazol-idin-2-yl)pyrim-idin-4-yl)amino)-phenyl)acrylamide] | 50 to 500 |
| C=CC(=O)Nc1cc(Nc2cc(N3OCC[C@@H]3c3cccc(-c4ccccc4)c3)ncn2)c(OC)cc1N1CCN(C(C)=O)CC1 [Example 215, (R)-N-(5-((6-(3-([1,1′-biphenyl]-3-yl)isoxazolidin-2-yl)pyrimidin-4-yl)-amino)-2-(4-acetyl-piperazin-1-yl)-4-methoxyphenyl)-acrylamide] | < 50 |
| C=CC(=O)Nc1cc(Nc2cc(N3OCC[C@@H]3c3cc(F)cc(Oc4ccn(C)n4)c3)ncn2)c(OC)cc1N1CCN(C)CC1 [Example 217, (R)-N-(5-((6-(3-(3-fluoro-5-((1-methyl-1H-pyr-azol-3-yl)oxy)-phenyl)isoxazol-idin-2-yl)pyrim-idin-4-yl)amino)-4-methoxy-2-(4-methylpiperazin-1-yl)phenyl)-acrylamide] | 50 to 500 |
| C=CC(=O)Nc1cc(Nc2cc(N3OCC[C@@H]3c3cc(F)cc(Oc4ccn(C)n4)c3)ncn2)c(OC)cc1N(C)CCN(C)C [Example 218, (R)-N-(2-((2-(dimethylamino)-ethyl)(methyl)-amino)-5-((6-(3-(3-fluoro-5-((1-methyl-1H-pyr-azol-3-yl)oxy)-phenyl)isoxazol-idin-2-yl)pyrim-idin-4-yl)amino)-4-methoxyphen-yl)acrylamide] | < 50 |
| C=CC(=O)Nc1cc(Nc2cc(N3OCC[C@@H]3c3cc(F)cc(Oc4cccc(F)c4)c3)ncn2)c(OC)cc1N1CCN(CC)CC1 [Example 220, (R)-N-(2-(4-ethyl-piperazin-1-yl)-5-((6-(3-(3-fluoro-5-(3-fluorophenoxy)-phenyl)isoxazol-idin-2-yl)pyrim-idin-4-yl)amino)-4-methoxyphen-yl)acrylamide] | < 50 |
| C=CC(=O)Nc1cc(Nc2cc(N3OCC[C@@H]3c3cc(F)cc(Oc4cccc(F)c4)c3)ncn2)c(OC)cc1N1CCOCC1 [Example 222, (R)-N-(5-((6-(3-(3-fluoro-5-(3-fluorophenoxy)-phenyl)isoxazol-idin-2-yl)pyrim-idin-4-yl)amino)-4-methoxy-2-morpholinophen-yl)acrylamide] | < 50 |
| C=CC(=O)Nc1cc(Nc2cc(N3OCC[C@@H]3c3cccc(Oc4cc(F)cc(F)c4)c3)ncn2)c(OC)cc1N(C)CCN(C)C [Example 226, (R)-N-(5-((6-(3-(3-(3,5-difluoro-phenoxy)phenyl)-isoxazolidin-2-yl)-pyrimidin-4-yl)-amino)-2-((2-(dimethylamino)-ethyl)(methyl)-amino)-4-methoxy-phenyl)acrylamide] | < 50 |
| C=CC(=O)Nc1cc(Nc2cc(N3OCC[C@H]3c3cccc(OCc4cccc(F)c4)c3)ncn2)c(OC)cc1N(C)CCN(C)C [Example 229, (S)-N-(2-((2-(dimethylamino)-ethyl)(methyl)-amino)-5-((6-(3-(3-((3-fluorobenz-yl)oxy)phenyl)-isoxazolidin-2-yl)-pyrimidin-4-yl)-amino)-4-methoxy-phenyl)acrylamide] | 50 to 500 |
| C=CC(=O)Nc1cc(Nc2cc(N3OCC[C@@H]3c3cccc(-c4ccccc4)c3)ncn2)c(OC)cc1N1CCN(CCC)CC1 [Example 230, (R)-N-(5-((6-(3-([1,1′-biphenyl]-3-yl)isoxazolidin-2-yl)pyrimidin-4-yl)-amino)-4-methoxy-2-(4-propylpiper-azin-1-yl)phenyl)-acrylamide] | < 50 |
| C=CC(=O)Nc1cc(Nc2cc(N3OCCC3c3cccc(-c4cnn(C)c4)c3)ncn2)c(OC)cc1N1CCN(C)CC1 (stereo not drawn) [Example 232, N-(4-methoxy-5-((6-(3-(3-(1-meth-yl-1H-pyrazol-4-yl)phenyl)isoxazol-idin-2-yl)pyrim-idin-4-yl)amino)-2-(4-methylpiper-azin-1-yl)phenyl)-acrylamide] | < 50 |
| C=CC(=O)Nc1cc(Nc2cc(N3OCCC3c3cccc(-c4cnn(C)c4)c3)ncn2)c(OC)cc1N1CCC(N2CCN(C3CC3)CC2)CC1 (stereo not drawn) [Example 234, N-(2-(4-(4-cyclo-propylpiperazin-1-yl)piperidin-1-yl)-4-methoxy-5-((6-(3-(3-(1-methyl-1H-pyrazol-4-yl)-phenyl)isoxazol-idin-2-yl)pyrim-idin-4-yl)amino)-phenyl)acrylamide] | < 50 |
| C=CC(=O)Nc1cc(Nc2cc(N3OCCC3c3cccc(-c4cnc5cccnn45)c3)ncn2)c(OC)cc1N(C)CCN(C)C (stereo not drawn) [Example 235, N-(2-((2-(dimeth-ylamino)ethyl)-(methyl)amino)-5-((6-(3-(3-(imidazo[1,2-b]-pyridazin-3-yl)-phenyl)isoxazol-idin-2-yl)pyrim-idin-4-yl)amino)-4-methoxyphen-yl)acrylamide] | < 50 |
| C=CC(=O)Nc1cc(Nc2cc(N3OCCC3c3cccc(-c4cccc(C(F)(F)F)c4)c3)ncn2)c(OC)cc1N(C)CCN(C)C (stereo not drawn) [Example 236, N-(2-((2-(dimeth-ylamino)ethyl)-(methyl)amino)-4-methoxy-5-((6-(3-(3′-(trifluorometh-yl)-[1,1′-biphenyl]-3-yl)isoxazolidin-2-yl)pyrimidin-4-yl)amino)phenyl)-acrylamide] | < 50 |
| C=CC(=O)Nc1cc(Nc2cc(N3OCCC3c3cccc(-c4cccc(C(F)(F)F)c4)c3)ncn2)c(OC)cc1N1CCN(C)CC1 (stereo not drawn) [Example 237] | 50 to 500 |
